From US11298363B2, “Triazolobenzazepines as vasopressin V1a receptor antagonists” (RICHTER GEDEON NYRT., priority 2017, dated 2022)
Counter-ions that a name gives are not always drawn.

Key:
[1] = molecular target: T1, human vasopressin V1a receptor (Homo sapiens, UniProt P37288); assay: Functional assay on human vasopressin V1a receptor expressing cell line (intracellular Ca2+ fluorescence); format: cell-based; conditions: 1321N1 cells, (Arg8)-vasopressin at EC80; read-out: IC50 (nM) on hV1a cell line
T1 sequence (P37288 whole entry): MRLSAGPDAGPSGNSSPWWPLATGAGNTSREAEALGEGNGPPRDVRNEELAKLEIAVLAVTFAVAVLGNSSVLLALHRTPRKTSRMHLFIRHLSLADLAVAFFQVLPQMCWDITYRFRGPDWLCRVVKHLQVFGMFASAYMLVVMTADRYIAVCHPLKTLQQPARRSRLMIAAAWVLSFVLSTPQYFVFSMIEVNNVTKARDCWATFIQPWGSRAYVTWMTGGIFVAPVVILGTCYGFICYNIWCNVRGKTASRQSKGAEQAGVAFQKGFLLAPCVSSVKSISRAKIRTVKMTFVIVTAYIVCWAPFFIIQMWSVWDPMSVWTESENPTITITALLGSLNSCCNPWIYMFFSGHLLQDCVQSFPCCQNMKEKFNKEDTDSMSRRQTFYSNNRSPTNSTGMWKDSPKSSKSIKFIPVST

[2] = molecular target: T1, human vasopressin V1a receptor; assay: Human vasopressin V1a receptor binding assay; conditions: 1321N1 cell membranes, [3H]vasopressin; read-out: Ki (nM) on hV1a cell line
Outline: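 Ki values come from IC50 via Cheng-Prusoff (KD from prior Scatchard), averaged over at least two independent runs. Human V1a membranes were incubated with radioligand 60 minutes at 27° C., bound ligand collected by filtration; (Arg^8)-vasopressin at 1.2×10^−6 M defined non-specific binding.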

Row | SMILES | IC50 [1] [nM] | Ki [2] [nM]
1 | CCC(C)(C)C(=O)N[C@H]1Cc2cc(Cl)ccc2-n2c(nnc2[C@H]2CC[C@H](Oc3ccccn3)CC2)C1 [Example 158, N-{(5S)-8-chloro-1-[trans-4-(pyridin-2-yloxy)cyclohexyl]-5,6-dihydro-4H-[1,2,4]triazolo[4,3-a][1]benzazepin-5-yl}-2,2-dimethylbutanamide] | 1510 | 62
2 | CC(C)(O)C(=O)N[C@H]1Cc2cc(Cl)ccc2-n2c(nnc2[C@H]2CC[C@H](Oc3ccccn3)CC2)C1 [Example 159, N-{(5S)-8-chloro-1-[trans-4-(pyridin-2-yloxy)cyclohexyl]-5,6-dihydro-4H-[1,2,4]triazolo[4,3-a][1]benzazepin-5-yl}-2-hydroxy-2-methylpropanamide] | 216 | 8
3 | CCN(C)[C@H]1Cc2cc(Cl)ccc2-n2c(nnc2[C@H]2CC[C@H](Oc3ccccn3)CC2)C1 [Example 160] | 4.9 | 0.4
4 | CC(C)CN[C@H]1Cc2cc(Cl)ccc2-n2c(nnc2[C@H]2CC[C@H](Oc3ccccn3)CC2)C1 [Example 161, (5S)-8-chloro-N-(2-methylpropyl-1-[trans-4-pyridin-2-yloxy)cyclohexyl]-5,6-dihydro-4H-[1,2,4]triazolo[4,3-a][1]benzazepin-5-amine] | 34 | 1.8
5 | Clc1ccc2c(c1)CC1(Cc3nnc([C@H]4CC[C@H](N5CCOCC5)CC4)n3-2)OCCO1 [Example 162, 8′-chloro-1′-[trans-4-(morpholin-4-yl)cyclohexyl]-4′H,6′H-spiro[1,3-dioxolane-2,5′-[1,2,4]triazolo[4,3-a][1]benzazepine]hydrochloride] | 2.9 | 0.5
6 | CN(C)C1Cc2cc(Cl)ccc2-n2c(nnc2N2CCC3(CC2)OCc2ccccc23)C1 (stereo not shown) [Example 163] | 6.2 | 1
7 | Clc1ccc2c(c1)CC1(Cc3nnc(N4CCN(c5ncccc5Cl)CC4)n3-2)OCCO1 [Example 164, 8′-chloro-1-[4-(3-chloropyridin-2-yl)piperazin-1-yl]-4′H,6′H-spiro[1,3-dioxolane-2,5′-[1,2,4]triazolo[4,3-a][1]benzazepine]] | 0.9 | 0.3
8 | CC(C)(C)CN[C@H]1Cc2cc(Cl)ccc2-n2c(nnc2[C@H]2CC[C@H](Oc3ccccn3)CC2)C1 [Example 165, (5S)-8-chloro-N-(2,2-dimethylpropyl)-1-[trans-4-(pyridin-2-yloxy)cyclohexyl]-5,6-dihydro-4H-[1,2,4]triazolo[4,3-a][1]benzazepin-5-amine] | 21 | 1.5
9 | COC1Cc2cc(Cl)ccc2-n2c(nnc2[C@H]2CC[C@H](C(=O)N3CCN(C)CC3)CC2)C1 (stereo partly drawn) [Example 166, [Trans-4-(8-chloro-5-methoxy-5,6-dihydro-4H-[1,2,4]triazolo[4,3-a][1]benzazepin-1-yl)cyclohexyl](4-methylpiperazin-1-yl)methanone] | 169 | 6.2
10 | Clc1ccc2c(c1)C[C@@H](N1CCOCC1)Cc1nnc([C@H]3CC[C@H](Oc4ccccn4)CC3)n1-2 [Example 167, (5R)-8-chloro-5-(morpholin-4-yl)-1-[trans-4-(pyridin-2-yloxy)cyclohexyl]-5,6-dihydro-4H-[1,2,4]triazolo[4,3-a][1]benzazepine] | 2.6 | 0.4
11 | CC(=O)N[C@@H]1Cc2cc(Cl)ccc2-n2c(nnc2[C@H]2CC[C@H](Oc3ccccn3)CC2)C1 [Example 168, N-{(5R)-8-chloro-1-[trans-4-(pyridin-2-yloxy)cyclohexyl]-5,6-dihydro-4H-[1,2,4]triazolo[4,3-a][1]benzazepin-5-yl}acetamide] | 0.8 | 0.4
12 | CC(C)(O)C(=O)N[C@@H]1Cc2cc(Cl)ccc2-n2c(nnc2[C@H]2CC[C@H](Oc3ccccn3)CC2)C1 [Example 169, N-{(5R)-8-chloro-1-[trans-4-(pyridin-2-yloxy)cyclohexyl]-5,6-dihydro-4H-[1,2,4]triazolo[4,3-a][1]benzazepin-5-yl}-2-hydroxy-2-methylpropanamide] | 2.3 | 0.9
13 | COC1Cc2cc(Cl)ccc2-n2c(nnc2C2CCN(C3CCOCC3)CC2)C1 (stereo not shown) [Example 170, 8-chloro-5-methoxy-1-[1-(tetrahydro-2H-pyran-4-yl)piperidin-4-yl]-5,6-dihydro-4H-[1,2,4]triazolo[4,3-a][1]benzazepine] | 38 | 15.3
14 | Clc1ccc2c(c1)CC1(Cc3nnc(N4CCN(c5ccccn5)CC4)n3-2)OCCO1 [Example 171, 8′-chloro-1′-[4-(pyridin-2-yl)piperazin-1-yl]-4′H,6′H-spiro[1,3-dioxolane-2,5′-[1,2,4]triazolo[4,3-a][1]benzazepine]] | 1.2 | 0.6
15 | OC1Cc2cc(Cl)ccc2-n2c(nnc2N2CCC3(CC2)OCc2ccccc23)C1 (stereo not shown) [Example 172, 8-chloro-1-(1′H,3H-spiro[2-benzofuran-1,4′-piperidin]-1′-yl)-5,6-dihydro-4H-[1,2,4]triazolo[4,3-a][1]benzazepin-5-ol] | 5.6 | 0.7
16 | OC1Cc2cc(Cl)ccc2-n2c(nnc2N2CCC(c3ncccc3Cl)CC2)C1 (stereo not shown) [Example 173, 8-chloro-1-[4-(3-chloropyridin-2-yl)piperidin-1-yl]-5,6-dihydro-4H-[1,2,4]triazolo[4,3-a][1]benzazepin-5-ol] | 11 | 1.6
17 | Clc1ccc2c(c1)C[C@@H](N1CCCC1)Cc1nnc([C@H]3CC[C@H](Oc4ccccn4)CC3)n1-2 [Example 174, (5R)-8-chloro-1-[trans-4-pyridin-2-loxcyclohexyl]-5-(pyrrolidin-1-yl)-5,6-dihydro-4H-[1,2,4]triazolo[4,3-a][1]benzazepine] | 3 | 0.7
18 | COC1Cc2cc(Cl)ccc2-n2c(nnc2C2CCN([C@H]3CCOC3)CC2)C1 (stereo partly drawn) [Example 175, 8-chloro-5-methoxy-1-{1-[(3S)-tetrahydrofuran-3-yl]piperidin-4-yl}-5,6-dihydro-4H-[1,2,4]triazolo[4,3-a][1]benzazepine] | 323 | 50.5
19 | COC1Cc2cc(Cl)ccc2-n2c(nnc2C2CCN([C@@H]3CCOC3)CC2)C1 (stereo partly drawn) [Example 178, 8-chloro-5-methoxy-1-{1-[(3R)-tetrahydrofuran-3-yl]piperidin-4-yl}-5,6-dihydro-4H-[1,2,4]triazolo[4,3-a][1]benzazepine] | 19 | 3.9
20 | CN(C)CCC(=O)N[C@@H]1Cc2cc(Cl)ccc2-n2c(nnc2[C@H]2CC[C@H](Oc3ccccn3)CC2)C1 [Example 179, N-{(5R)-8-chloro-1-[trans-4-(pyridin-2-yloxy)cyclohexyl]-5,6-dihydro-4H-[1,2,4]triazolo[4,3-a][1]benzazepin-5-yl}-N^3,N^3-dimethyl-β-alaninamide] | 1.4 | 0.2
21 | O=C(N[C@@H]1Cc2cc(Cl)ccc2-n2c(nnc2[C@H]2CC[C@H](Oc3ccccn3)CC2)C1)C1CCOCC1 [Example 180, N-{(5R)-8-chloro-1-[trans-4-(pyridin-2-yloxy)cyclohexyl]-5,6-dihydro-4H-[1,2,4]triazolo[4,3-a][1]benzazepin-5-yl}tetrahydro-2H-pyran-4-carboxamide] | 4.1 | 1.1
22 | OC1Cc2cc(Cl)ccc2-n2c(nnc2N2CCC(Oc3ccccn3)CC2)C1 (stereo not shown) [Example 181, 8-chloro-1-[4-(pyridin-2-yloxy)piperidin-1-yl]-5,6-dihydro-4H-[1,2,4]triazolo[4,3-a][1]benzazepin-5-ol] | 1.8 | 0.5
23 | COC1Cc2cc(Cl)ccc2-n2c(nnc2[C@H]2CC[C@H](N3CCN(C)CC3)CC2)C1 (stereo partly drawn) [Example 182, 8-chloro-5-methoxy-1-[trans-4-(4-methylpiperazin-1-yl)cyclohexyl]-5,6-dihydro-4H-[1,2,4]triazolo[4,3-a][1]benzazepine] | 416 | 19
24 | COC1Cc2cc(Cl)ccc2-n2c(nnc2[C@H]2CC[C@@H](N3CCN(C)CC3)CC2)C1 (stereo partly drawn) [Example 183, 8-chloro-5-methoxy-1-[cis-4-(4-methylpiperazin-1-yl)cyclohexyl]-5,6-dihydro-4H-[1,2,4]triazolo[4,3-a][1]benzazepine] | 2120 | 102
25 | COC1Cc2cc(Cl)ccc2-n2c(nnc2C2CCN(Cc3cccnc3)C2)C1 (stereo not shown) [Example 184, 8-chloro-5-methoxy-1-[1-(pyridin-3-ylmethyl)pyrrolidin-3-yl]-5,6-dihydro-4H-[1,2,4]triazolo[4,3-a][1]benzazepine] | 25 | 0.6
26 | COC1Cc2cc(Cl)ccc2-n2c(nnc2C2CCN(Cc3ccccn3)C2)C1 (stereo not shown) [Example 185, 8-chloro-5-methoxy-1-[1-(pyridin-2-ylmethyl)pyrrolidin-3-yl]-5,6-dihydro-4H-[1,2,4]triazolo[4,3-a][1]benzazepine] | 19 | 4.1
27 | N#CCC(=O)N[C@@H]1Cc2cc(Cl)ccc2-n2c(nnc2[C@H]2CC[C@H](Oc3ccccn3)CC2)C1 [Example 186, N-(5R)-8-chloro-1-[trans-4-(pyridin-2-yloxy)cyclohexyl]-5,6-dihydro-4H-[1,2,4]triazolo[4,3-a][1]benzazepin-5-yl-2-cyanoacetamide] | 1.2 | 0.4
28 | COC1Cc2cc(Cl)ccc2-n2c(nnc2C2CCN(C(=O)c3cccnc3)C2)C1 (stereo not shown) [Example 187, [3-(8-chloro-5-methoxy-5,6-dihydro-4H-[1,2,4]triazolo[4,3-a][1]benzazepin-1-yl)pyrrolidin-1-yl](pyridin-3-yl)methanone] | 4750 | 86
29 | Clc1ccc2c(c1)CC1(Cc3nnc(C4CCN([C@@H]5CCOC5)CC4)n3-2)OCCO1 [Example 188, 8′-chloro-1′-{1-[(3R)tetrahydrofuran-3-yl]piperidin-4-yl}-4′H,6′H-spiro[1,3-dioxolane-2,5′-[1,2,4]triazolo[4,3-a][1]benzazepine]] | 5.3 | 0.5
